According to patent publication US20240115654A1, “INTRAVENOUS ADMINISTRATION OF ENGINEERED ANTIMICROBIAL AMPHIPHILIC PEPTIDES” (priority 2021, published 2024):
Converted amounts (≈) assume the structure as drawn. “And” between values parts separate entries of the source, which are not always exact repeats. Equal entries are not always repeated. Where two headings read alike, the source gives them in different places. Peptide text beside a SMILES is read from it.

Tests used:
[1] = test system: Klebsiella pneumoniae isolates (n = 101); details: Klebsiella pneumoniae (n = 101); CLSI breakpoints, colistin EUCAST
Protocol: (§1) Comparator antibiotics were supplied by Micromyx, and stock solutions were prepared on the first day of testing using solvents recommended by CLSI (1). Stock solutions of all compounds were made at 40× the final testing concentration and stored at −80° C. prior to testing. Information regarding compound source, catalog and lot number, testing concentrations and drug diluent for the comparators and test agent are detailed below in Table 3.
(§2) The test organisms evaluated in this study consisted of clinical isolates from the Micromyx Repository and reference isolates from the American Type Culture Collection (ATCC; Manassas, VA). The clinical isolates were obtained from USA hospitals. Upon initial receipt at Micromyx, the organisms were sub-cultured onto an appropriate agar medium. Following incubation, colonies were harvested from these plates and cell suspensions prepared and frozen at −80° C. with a cryoprotectant. Prior to testing, the isolates were streaked from frozen vials onto Trypticase Soy Agar with 5% sheep blood (Becton Dickenson [BD]; Sparks, MD; Lot Nos. 7173618, 7166759, 7208688, 72144895, 7228505 and Remel Lenexa, KS Lot No. 212574). Plates were incubated at 35° C. overnight.
(§3) Mueller Hinton II broth (MHB II; BD; Lot Nos. 6258541 and 7143896) was used for MIC testing of aerobic organisms.
(§4) MIC values were determined using a broth microdilution procedure described by CLSI (1, 3). Automated liquid handlers (Multidrop 384, Labsystems, Helsinki, Finland; Biomek 2000 and Biomek FX, Beckman Coulter, Fullerton CA) were used to conduct serial dilutions and liquid transfers.
(§5) To prepare the drug mother plates, which would provide the serial drug dilutions for the replicate daughter plates, the wells of columns 2-12 of standard 96-well microdilution plates (Costar 3795) were filled with 150 μl of the designated diluent for each row of drug. The test articles and comparator compounds (300 μl at 40× the highest concentration to be tested) were dispensed into the appropriate wells in column 1. The Biomek 2000 was then used to make 2-fold serial dilutions in the mother plates from column 1 through column 11. The wells of Column 12 contained no drug and served as the organism growth control wells for the assay.
(§6) The daughter plates were loaded with 185 μL per well of MHB II using the Multidrop 384. The daughter plates were completed on the Biomek FX instrument which transferred 5 μL of drug solution from each well of a mother plate to the corresponding well of each daughter plate in a single step. A standardized inoculum of each test organism was prepared per CLSI methods (1). The inoculum for each organism was dispensed into sterile reservoirs divided by length (Beckman Coulter), and the Biomek 2000 was used to inoculate the plates. Daughter plates were placed on the Biomek 2000 work surface in reverse orientation so that inoculation took place from low to high drug concentration.
(§7) Plates were stacked 3-4 high, covered with a lid on the top plate, placed in plastic bags, and incubated at 35° C. for 16 to 20 hrs. Following incubation, the microplates were removed from the incubator and viewed from the bottom using a plate viewer. […] The MIC was read and recorded as the lowest concentration of drug that inhibited visible growth of the organism.
(§8) Clinical breakpoints to determine percent resistance within a given organism group were obtained from CLSI (3), with the exception of colistin for K. pneumoniae, Enterobacter spp., and E. coli, which are only available from EUCAST.

[2] = test system: Pseudomonas aeruginosa isolates (n = 109); details: Pseudomonas aeruginosa (n = 109), CLSI breakpoints
Protocol: as §1, §2, §3, §4, §5, §6, §7, §8

[3] = test system: Escherichia coli isolates (n = 101); details: Escherichia coli (n = 101); CLSI breakpoints, colistin EUCAST
Protocol: as §1, §2, §3, §4, §5, §6, §7, §8

[4] = test system: Acinetobacter spp. isolates (n = 104); details: Acinetobacter spp. (n = 104); CLSI breakpoints
Protocol: as §1, §2, §3, §4, §5, §6, §7, §8

[5] = test system: Pseudomonas aeruginosa ATCC 27853 (non-MDR; QC); details: P. aeruginosa ATCC 27853; established CLSI QC range; cited from earlier work
[6] = test system: Staphylococcus aureus ATCC 29213 (MSSA; QC); details: S. aureus ATCC 29213; established CLSI QC range; cited from earlier work
[7] = test system: Escherichia coli ATCC 25922 (QC); details: E. coli ATCC 25922; established CLSI QC range; cited from earlier work
[8] = test system: Enterococcus faecalis ATCC 29212 (VSE; QC); details: E. faecalis ATCC 29212; established CLSI QC range; cited from earlier work
[9] = test system: Streptococcus pneumoniae ATCC 49619 (QC); details: S. pneumoniae ATCC 49619; established CLSI QC range; cited from earlier work
[10] = test system: Enterobacter spp. isolates (Enterobacter aerogenes and E. cloacae, n = 102); assay: organism not typed
Protocol: as §1, §2, §3, §4, §5, §6, §7, §8

[11] = 1.0 mg/kg, 30 min IV infusion, individual monkeys
Protocol: Animals will be obtained from the Test Facility's colony of adult male cynomolgus monkeys (Macaca fascicularis) of Chinese origin. Animals will be weighed prior to dosing.
Animals will be fasted a minimum of 2 hours prior to procedures requiring the administration of ketamine anesthesia. The diet will also be supplemented with other nutrients by feeding items such as raisins or fresh fruits that are presented to the animal as part of an environmental enrichment program. Offering items known to cause diarrhea will be avoided.
Intravenous administration will be via 30 minute infusion into a temporary percutaneous catheter placed into a saphenous vein. […]
The peptide will be purified from plasma samples from each macaque using a cation exchange-based solid-phase extraction process. Prior to extraction, a known concentration of a mass-adjusted internal standard (IS) will be added to assess recovery and allow for quantitation. […] Compound plasma concentrations will be determined by comparing to and compensating with co-purified IS peak intensity and validated calibrated standard curves.
Toxicokinetic parameters will be calculated using non-compartmental methods as implemented in the Phoenix® WinNonlin® ver. […] Values below the lower limit of quantitation (BLQ) will be assigned a value of zero for the toxicokinetic calculations. […]

Structure (SMILES) | % R (percent of isolates resistant) [1] [%] | % R (percent of isolates resistant) [2] [%] | % R (percent of isolates resistant) ([2]; listed as meropenem) [%] | % R (percent of isolates resistant) [3] [%] | % R (percent of isolates resistant) [4] [%] | MIC QC range (in parentheses under the MIC) [5] | MIC QC range (in parentheses under the MIC) [6] | MIC QC range (in parentheses under the MIC) [7] | MIC QC range (in parentheses under the MIC) [8] | MIC QC range (in parentheses under the MIC) [9] | MIC50 [10] [µg/mL] | MIC90 [10] [µg/mL] | % R (percent of isolates resistant) ([10]; Enterobacter spp. (n = 102), CLSI breakpoints, colistin EUCAST) [%] | MIC ([10]; read-out: Mode (MIC)) [µg/mL] | Dose Normalized Cmax [11]
C[C@@H](O)[C@H]1C(=O)N2C(C(=O)O)=C(S[C@@H]3CN[C@H](C(=O)N(C)C)C3)[C@H](C)[C@H]12 [Meropenem] | 50.5 | 20.2 | 20 | 1 | 65.4 | (0.12-1) μg/mL | (0.03-0.12) μg/mL | (0.008-0.06) μg/mL | (2-8) μg/mL | (0.03-0.25) μg/mL | 0.03 (≈ 0.0782 µM) | 0.12 (≈ 0.313 µM) | 3.9 | 0.03 (≈ 0.0782 µM) | 
C[C@@H](O)[C@H](NC(=O)[C@H](Cc1c[nH]cn1)NC(=O)[C@@H](NC(=O)[C@H](CCCCN)NC(=O)[C@H](CCCCN)NC(=O)[C@@H](NC(=O)[C@H](CCCCN)NC(=O)[C@@H](NC(=O)[C@H](Cc1c[nH]cn1)NC(=O)[C@@H](NC(=O)[C@H](CCCCN)NC(=O)[C@H](CCCCN)NC(=O)[C@@H](NC(=O)[C@H](CCCCN)NC(=O)[C@@H](NC(=O)[C@H](Cc1c[nH]cn1)NC(=O)[C@@H](NC(=O)[C@H](CCCCN)NC(=O)[C@@H](N)CCCCN)[C@@H](C)O)[C@@H](C)O)[C@@H](C)O)[C@@H](C)O)[C@@H](C)O)[C@@H](C)O)[C@@H](C)O)C(=O)N[C@@H](CCCCN)C(=O)O [SEQ ID NO: 13] (H-KKTHTKTKKTHTKTKKTHTK-OH) |  |  |  |  |  |  |  |  |  |  |  |  |  |  | 5000 and 7000 and 6000
